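Step 1: Grow cells in 96-well plates. Step 2: Expose to compound for 48 hours at 5 concentrations. Step 3: Interpolate endpoints linearly; if unreached, use highest concentration. At the TGI there is no net growth.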
Key:
Test in all cases: DTP human tumour cell line panel, 48 h
NCI-H23 lung = system: NCI-H23 lung
SW-620 colon = system: SW-620 colon
M14 melanoma = system: M14 melanoma
A549 NSCLC = system: A549 NSCLC
UACC-257 melanoma = system: UACC-257 melanoma
UACC-62 melanoma = system: UACC-62 melanoma
NCI-H522 lung = system: NCI-H522 lung
IGROV1 ovarian = system: IGROV1 ovarian
SK-OV-3 ovarian = system: SK-OV-3 ovarian
LOX IMVI melanoma = system: LOX IMVI melanoma
NCI-H226 lung = system: NCI-H226 lung
HT29 colon = system: HT29 colon
EKVX NSCLC = system: EKVX NSCLC
TK-10 renal = system: TK-10 renal
LXFL 529 NSCLC = system: LXFL 529 NSCLC
HOP-18 NSCLC = system: HOP-18 NSCLC
OVCAR-3 ovarian = system: OVCAR-3 ovarian
DLD-1 colon = system: DLD-1 colon
ACHN renal = system: ACHN renal
SK-MEL-28 melanoma = system: SK-MEL-28 melanoma
786-0 renal = system: 786-0 renal
HOP-92 NSCLC = system: HOP-92 NSCLC
DMS 273 small cell lung = system: DMS 273 small cell lung
MALME-3M melanoma = system: MALME-3M melanoma
CCRF-CEM leukemia = system: CCRF-CEM leukemia
SNB-75 CNS = system: SNB-75 CNS
SF-295 CNS = system: SF-295 CNS
U251 CNS = system: U251 CNS
UO-31 renal = system: UO-31 renal
SNB-78 CNS = system: SNB-78 CNS
HCC-2998 colon = system: HCC-2998 colon
HCT-15 colon = system: HCT-15 colon
SF-539 CNS = system: SF-539 CNS
NCI-H460 lung = system: NCI-H460 lung
K-562 leukemia = system: K-562 leukemia
SN12C renal = system: SN12C renal
A498 renal = system: A498 renal
HCT-116 colon = system: HCT-116 colon
MOLT-4 leukemia = system: MOLT-4 leukemia
SK-MEL-5 melanoma = system: SK-MEL-5 melanoma
CAKI-1 renal = system: CAKI-1 renal
SNB-19 CNS = system: SNB-19 CNS
COLO 205 colon = system: COLO 205 colon
OVCAR-8 ovarian = system: OVCAR-8 ovarian
RXF 393 renal = system: RXF 393 renal
RXF-631 renal = system: RXF-631 renal
RPMI-8226 leukemia = system: RPMI-8226 leukemia
SR leukemia = system: SR leukemia
SK-MEL-2 melanoma = system: SK-MEL-2 melanoma
OVCAR-5 ovarian = system: OVCAR-5 ovarian
DMS 114 small cell lung = system: DMS 114 small cell lung
HOP-62 NSCLC = system: HOP-62 NSCLC
XF 498 CNS = system: XF 498 CNS
OVCAR-4 ovarian = system: OVCAR-4 ovarian
KM12 colon = system: KM12 colon
KM20L2 colon = system: KM20L2 colon
M19-MEL melanoma = system: M19-MEL melanoma
HL-60(TB) leukemia = system: HL-60(TB) leukemia
SF-268 CNS = system: SF-268 CNS

Measured: TGI

CN[C@@H](C)[C@@H](N)c1ccccc1
not listed: SR leukemia | SK-MEL-2 melanoma | OVCAR-5 ovarian | DMS 114 small cell lung | HOP-62 NSCLC | XF 498 CNS | OVCAR-4 ovarian | KM12 colon | KM20L2 colon | M19-MEL melanoma | HL-60(TB) leukemia | SF-268 CNS
> 100 µM: all other assays above

CC(=O)c1cccc(NC(=O)C(=O)C(C2OC(=O)c3ccccc32)[N+](=O)[O-])c1 (configuration not stated)
not listed: NCI-H522 lung | HOP-18 NSCLC | DMS 273 small cell lung | OVCAR-8 ovarian
> 100 µM: all other assays above
